Values joined by “and” are separate entries in the source; they are usually repeats but may differ in a detail not shown here. Equal values may be shown once. Where a name gives a salt, the structure may show the parent alone. Read-outs that look alike come from different tables or passages of the source.
Key:
in vivo = conditions: SD, rat, iv
[1] = system: acetic acid writhing in mice; test: mouse acetic acid writhing model (analgesic effect); type: in vivo, Kunming mice; conditions: intragastric 30 mg/kg; for Writhing inhibition rate (%): 40 min before i.p. 0.6% acetic acid, writhings counted over 15 min
Description: 1. Experimental purposes: To determine the analgesic activity of Compound (4) hydrochloride and Compounds (1), (2), (3), (5) in a mouse acetic acid writhing model.
2. Experimental materials: Kunming mice (18-22 g), half male and half female, were provided by the Experimental Animal Center of the Academy of Military Medical Sciences.
The mice were weighed and labeled, 10 mice in each group (half male and half female), the mice were divided into 7 groups, including 5 experimental groups (using Compound (4) hydrochloride, Compound (1), (2), (3), (5), respectively), positive control group (using NMED-160) and negative control group (using normal saline). Among them, NMED-160 used in the positive control group was a selective small molecule N-type calcium ion channel blocker, which had entered the phase II clinical trial and could be synthesized by referring to document^[11], and the structural formula thereof is as follows: […]
The mice were intragastrically administered with drug (30 mg/kg). After 40 minutes, 0.4 mL of 0.6% (v/v) acetic acid was intraperitoneally injected. After 5 minutes, the number of mouse writhings in the subsequent 15 minutes was recorded. The inhibition rate of the drug on the acetic acid writhing in mice was calculated according to the following formula, and the analgesic effect of the drug was evaluated.
A represents the number of writhings in the negative control group;
B represents the number of writhings in the experimental groups or the positive control group.

[2] = Rapid evaluation of pharmacokinetics in rats; type: in vivo, SD rats
Description: Compound (1) was dissolved in 25% (w/v) aqueous solution of hydroxypropyl-β-cyclodextrin;
Adult SD rats, 180-220 g in body weight, male, purchased from the Animal Center of the Academy of Military Medical Sciences, Animal Certificate SCXK-(Army)-2012-0004;
Six adult SD rats were randomly numbered, and divided into 2 groups to receive intravenous injection (i.v., 1.85 mg/kg) and oral administration (p.o., 11 mg/kg) of Compound (1), respectively; blood samples were collected at 0.1 mL before administration and 2 minutes, 5 minutes, 15 minutes, 30 minutes, 60 minutes, 2 hours, 4 hours, 7 hours and 24 hours after administration, placed in anticoagulation tubes, centrifuged for 15 minutes (3500 rpm) to separate plasma, and 0.05 mL plasma samples were accurately taken and frozen in a refrigerator at −30° C. for later tests.
To the 0.05 mL rat plasma sample, 0.3 mL of acetonitrile containing the internal standard substance megestrol (100 ng/mL) and 0.005 mL of blank acetonitrile were added, vortexed for 1 minute on a vortex mixer, and centrifuged for 10 minutes (14,000 g), about 0.15 mL of the supernatant was taken and placed into an injection vial, injected 5 μL to LC-MS/MS for detection and analysis by referring to the method of the above section 2. […] The results of 1 # to 3 # were averaged, the results of 4 # to 6 # were averaged, and the relationship curves of the average concentrations of Compound (1) in the rats of i.v. administration and in the rats of p.o. administration against time were obtained and shown in FIG. 2. The Winnolin pharmacokinetic software was used to analyze the measured data and calculate the main pharmacokinetic parameters, including the area under curve (AUC), clearance rate (CL), apparent distribution volume (V), terminal elimination half life (t1/2) and mean residence time (MRT) for the intravenous injection, as well as the area under curve (AUC), terminal elimination half life (t1/2), mean residence time (MRT), peak concentration (Cmax), time to peak (Tmax) and biological force (F) for the oral administration.

[3] = system: N-type calcium ion channel (α1B/β1b/α2δ); test: N-type calcium ion channel current suppression, two-electrode voltage clamp in Xenopus oocytes; type: cell-based; conditions: 10 μM
Description: To determine the current suppressing effects of Compound (4) hydrochloride and Compounds (1), (2), (3), (5) of the present invention on N-type calcium ion channel (α1B/β1b/α2δ) transiently expressed in Xenopus oocytes.
Plasmids α1B, α2δ, β1b were injected into Xenopus oocytes in concentration ratio of 1:1:1, and the total volume of the three plasmids injected into per cell was about 46 nL. The injected cells were placed in ND-96 medium at 18° C. for 48 hours, then the expressed current was recorded.
Perfusion administration method was adopted with a flow rate of 3 mL/min and a test drug concentration of 10 μM. Using two-electrode voltage clamp technique, the cell was clamped at −100 mV, stepped at 10 mV, depolarized to +60 mV, and the current was recorded.
Current inhibition rate (%)=100×(current amplitude after administration−current amplitude before administration)/current amplitude before administration

[4] = Evaluation of the central nervous system distribution in rats; conditions: for Kp at 2 h: SD, rat
[5] = male, SD, rat, plasma, intravenous injection 1.85 mg/kg, n = 3
[6] = male, SD, rat, plasma, oral administration 11 mg/kg, n = 3

SMILES: O=C(CCN1CCC(c2ccccc2)(c2ccccc2)CC1)c1ccc2[nH]c(=O)oc2c1 [Compound (1), 6-(3-(4,4-diphenylpiperidinyl)-propionyl)benzoxazolin-2-one]
- melting point: 236 °C (dec.)
- concentration at 2 h (in vivo): 271 ng/mL and 998 ng/g
- Writhing inhibition rate (%) [1]: 58.77%
- analgesic effect (in words) ([1]; acetic acid writhing): comparable to that of NMED-160
- effect of liver metabolism on the clearance in vivo ([2]; i.v. clearance compared with rat liver blood flow (3.3 L/h/kg)): about 70%
- V ([2]; intravenous injection 1.85 mg/kg, n = 3, 1.85 mg/kg): 12.39 L/kg and 12.39 ± 3.17 L/kg
- AUC [2, 5]: 750 ± 98.2 ng·h/mL
- MRT [2, 5]: 3.87 ± 0.18 h
- clearance [2, 5]: 39.7 mL/min/kg
- half-life [2, 5]: 5 ± 0.88 h
- AUC [2, 6]: 1670 ± 222 ng·h/mL
- Cmax [2, 6]: 188 ± 28.5 ng/mL
- MRT [2, 6]: 5.6 ± 0.46 h
- half-life [2, 6]: 5.4 ± 1.5 h
- Tmax ([2]; male, SD, rat, plasma, po, 11 mg/kg, oral administration 11 mg/kg, n = 3, read-out: Tmax): 1 to 2 h
- F ([2]; oral 11 mg/kg vs intravenous 1.85 mg/kg, n = 3): 44.7% and 44.7 ± 5.93%
- Tmax ([2]; oral administration 11 mg/kg, n = 3, 11 mg/kg): 1.33 ± 0.58 h
- Current inhibition rate (%) [3]: 70.6%
- Kp at 2 h ([4]; brain/plasma, intravenous): 3 ± 0.71
- Kp at 2 h ([4]; in vivo): 3 to 4
- Kp at 2 h ([4]; spinal cord/plasma, intravenous): 3.7 ± 1.3
- Concentration, Rat brain tissue ([4]; rats, i.v. bolus then instillation, 2 hours after administration, n = 3): 808.3 ± 233.8 ng/g

SMILES: COc1cc(CN2CCC(c3ccccc3)(c3ccccc3)CC2)cc(OC)c1OC (as salt: hydrochloride)
- melting point: 235 to 237 °C

SMILES: CN(C)c1ccc(CN2CCC(c3ccccc3)(c3ccccc3)CC2)cc1 [Compound (3), 1-(4-dimethylaminobenzyl)-4,4-diphenylpiperidine]
- melting point: 128 to 130 °C
- Writhing inhibition rate (%) [1]: 23.17%
- Current inhibition rate (%) [3]: 42.3%

SMILES: O=C(CC(c1ccccc1)c1ccccc1)N1CCN(C(c2ccccc2)c2ccccc2)CC1 [NMED-160, reference compound]
- Writhing inhibition rate (%) [1]: 51.75%

SMILES: c1ccc(C2(c3ccccc3)CCN(Cc3cccs3)CC2)cc1 [Compound (5), 1-(2-methylthienyl)-4,4-diphenylpiperidine]
- Writhing inhibition rate (%) [1]: 46.87%
- Current inhibition rate (%) [3]: 45.3%

SMILES: O=C(CN1CCC(c2ccccc2)(c2ccccc2)CC1)c1ccc2[nH]c(=O)oc2c1 [Compound (2), 6-(3-(4,4-diphenylpiperidinyl)-acetyl)benzoxazolin-2-one]
- Writhing inhibition rate (%) [1]: 54.66%
- Current inhibition rate (%) [3]: 65.6%

SMILES: COc1cc(CN2CCC(c3ccccc3)(c3ccccc3)CC2)cc(OC)c1OC.Cl [Compound (4) hydrochloride, 1-(3,4,5-trimethoxybenzyl)-4,4-diphenylpiperidine hydrochloride]
- Writhing inhibition rate (%) [1]: 39.68%
- Current inhibition rate (%) [3]: 54.1%

From patent US10889575B2, “4,4-diphenylpiperidine compounds or pharmaceutically acceptable salts thereof, pharmaceutical compositions and uses thereof” (Academy of Military Medical Sciences, priority 2017, dated 2021)
